One series addresses T1, carboxypeptidase Y (Saccharomyces cerevisiae, UniProt P00729).
T1 construct: purchased Sigma-Aldrich
Description: Carboxypeptidase Y assay (31P NMR). The series is classed as in vitro ADME. The settings on record: acetone-d6/Trizma buffer pH 7.6, 31P NMR. As for the experimental part: ProTides 7a (5 mg, ±0.008 mmol) was dissolved in 150 μL of acetone-d6, and 300 μL of trizma buffer (pH 7.6) was added. A ^31P NMR (202 MHz, 64–128 scans) was conducted at this stage as a reference (blank, t = 0). To this mixture, 130 μL of a stock solution of carboxypeptidase enzyme (purchased from Sigma-Aldrich, >50 unit/mg, dissolved in trizma buffer 7.6 pH to a concentration of 50 units/mL, EC 3.4.16.1) was added. ^31P NMR (128 scans) were carried out with 1 min of delay between experiments for 14 h at 25 °C.

Series [1] concerns CEM, K562, HL-60, and CRL cell lines. The series is described as follows: Intracellular 3′-dATP quantification, cell lines together. The series is classed as cell-based, human. As for the experimental part:
HL-60 (ATCC CCL-240), K562 (ATCC CCL-243), CCRF-CEM (ATCC CRM-CCL-119), and RL (ATCC CRL-2261) leukemia cell lines were obtained from the American Type Culture Collection (ATCC), Middlesex. HL-60 and K562 cell lines are deoxynucleotidyl transferase-negative (TdT^–ve), whereas CCRF-CEM cell line is TdT^+ve. They were cultured in RPMI-1640 medium (Sigma-Aldrich, U.K.), which were supplemented with 10% fetal bovine serum (FBS) (PAA Laboratories), 1% amphotericin B (5.5 mL), and 1% penicillin/streptomycin (5.5 mL) (PAA Laboratories) and grown in flasks at 37 °C in an incubator with 5% CO2. […]
The analytes were resolved using an ultraperformance liquid chromatography system (Accela UPLC, Thermo Scientific, U.K.) equipped with a Biobasic A × 5 μm, 50 × 2.1 mm column (Thermo Electron Corporation, Murrieta, CA) and mobile phase consisting of a mixture of 10 mM NH4Ac in ACN/H2O (30:70 v/v), pH 6.0 (A), and 1 mM NH4Ac in ACN/H2O (30:70 v/v), pH 10.5 (B). […] Eluting compounds of interest were detected using a triple-stage quadrupole Vantage mass spectrometry system (Thermo Scientific, U.K.) equipped with an electrospray ion source. Samples were analyzed in the Multiple Reaction Monitoring, negative-ion modes at a spray voltage of 3000 V. Nitrogen was used as sheath and auxiliary gas at flow rates of 50 and 20 arbitrary units, respectively. […]

In series [2] the target is T2, adenosine deaminase (ADA) (Bos taurus, UniProt P56658).
T2 construct: purchased Sigma-Aldrich 59722
T2 sequence (P56658 1-363): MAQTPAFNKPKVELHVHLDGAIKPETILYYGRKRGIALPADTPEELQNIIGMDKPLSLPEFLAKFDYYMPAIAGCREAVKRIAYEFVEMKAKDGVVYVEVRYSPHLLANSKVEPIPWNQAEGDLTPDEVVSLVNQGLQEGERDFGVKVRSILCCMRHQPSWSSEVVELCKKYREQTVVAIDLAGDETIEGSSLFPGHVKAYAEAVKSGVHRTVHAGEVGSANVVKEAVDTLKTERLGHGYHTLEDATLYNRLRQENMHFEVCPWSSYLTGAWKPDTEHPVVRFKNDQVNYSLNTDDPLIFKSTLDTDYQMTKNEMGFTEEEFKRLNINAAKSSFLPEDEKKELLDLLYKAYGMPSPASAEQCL
The series is described as follows: Adenosine deaminase assay (UV). The series is classed as in vitro ADME, Bovine. The settings on record: 62.5 μM. Here is the method:
Bovine recombinant adenosine deaminase (ADA, EC:3.5.4.4) was purchased from Sigma (Sigma-Aldrich, product number 59722). The ADA suspension (containing >2 U/mL) was aliquoted into 55 μL portions and kept at −20 °C. Before use, a 55 μL sample was thawed and 1 mL of phosphate buffer (0.1 N, pH 7.4) was added. The suspension was filtered through a 0.2 μm filter to remove precipitates that could interfere with the absorbance measurements. The clear supernatant was used for the degradation experiments. The experiments were conducted in UV transparent cuvettes (Sigma-Aldrich, code: Z637092) using an Envision microplate reader (PerkinElmer). […] Scans of the absorption spectrum were taken between 220 and 350 nm with 2 nm resolution every 0.1 min over a period of 10 min to 12 h. One sample containing only ADA was also prepared, and this was subtracted to obtain the spectrum over time for substrates.

The test system of series [3] is advanced solid tumors or lymphoma. Also on record: method as in PMID 34497073. To be noted: preliminary findings, phase I/II trial; cited from earlier work.

T1 sequence (P00729 112-532, species assumed): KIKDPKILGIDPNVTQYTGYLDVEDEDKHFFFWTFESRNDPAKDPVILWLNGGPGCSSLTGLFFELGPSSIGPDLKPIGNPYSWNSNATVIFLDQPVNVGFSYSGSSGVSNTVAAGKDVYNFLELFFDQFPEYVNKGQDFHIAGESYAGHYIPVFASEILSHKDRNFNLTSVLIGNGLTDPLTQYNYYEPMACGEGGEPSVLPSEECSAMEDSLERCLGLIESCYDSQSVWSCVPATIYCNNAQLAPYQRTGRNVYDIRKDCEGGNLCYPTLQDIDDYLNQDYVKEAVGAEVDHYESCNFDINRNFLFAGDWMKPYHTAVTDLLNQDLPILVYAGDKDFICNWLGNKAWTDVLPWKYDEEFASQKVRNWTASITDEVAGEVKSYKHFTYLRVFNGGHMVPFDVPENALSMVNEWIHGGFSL

With `C[C@H](NP(=O)(OC[C@@H]1C[C@@H](O)[C@H](n2cnc3c(N)ncnc32)O1)Oc1ccccc1)C(=O)OCc1ccccc1` (stereo partly drawn) [Compound 7a, (Rp)- and (Sp)-3′-Deoxyadenosine 5′-O-phenyl-(benzoxy-L-alaninyl)-phosphate], the “time to complete conversion into aminoacyl phosphoramidate ester II” value at carboxypeptidase Y is 1 h. The “effect of hENT1, AK, and ADA inhibitors on intracellular 3′-dATP levels” value in series [1] is “did not affect”. Further, the “UV absorbance spectra in absence and presence of ADA” value in series [2] (ADA from calf, phosphate buffer pH 7.4, 25 °C, 12 h) was “the two lines are superimposed”. In addition, the “shift of the maximum absorption after ADA addition (deamination)” value in series [2] (up to 2 h) is given as “no shift of the maximum absorption at 265 nm”. Moreover, in series [3], the anticancer activity result is given as “encouraging signals of anticancer activity” and the tolerability result is on record as “well tolerated”.
As to `Nc1ncnc2c1ncn2[C@@H]1O[C@H](CO)C[C@H]1O` [3′-dA, 3′-Deoxyadenosine, reference compound], the “time to complete metabolic deamination by ADA” value in series [2] (bovine, pH 7.4) is recorded as “up to 2 minutes”.

The values above are taken from article PMC9743095 (Journal of Medicinal Chemistry, 2022).
